US10189840B2, “Substituted tricyclic heterocyclic compounds” (BRISTOL-MYERS SQUIBB COMPANY, priority 2015, dated 2019)

target: TNFα (Homo sapiens (Human), UniProt P01375); test: TNF induced HEK-Blue assay; type: cell-based; conditions: TNFα 0.5 ng/ml; HEK-Blue-CD40L cells, NF-κB-driven secreted alkaline phosphatase reporter; 18 h
Protocol: Test compounds serially diluted in DMSO were plated in an assay plate (Labcyte, Cat. #LP-0200) at final concentrations ranging from 0.004 μM to 25 μM. TNFα (final concentration 0.5 ng/ml) or CD40L (final concentration 30 ng/ml) in assay buffer [DMEM, 4.5 g/l glucose (Gibco, Cat. 21063-029), 10% FBS (Sigma, F4135), 1% Penicillin-Streptomycin (Gibco, Cat. 15140-122), 1% Anti-Anti (Gibco, Cat. 15240-112) and 2 mM L-glutamine (Gibco, Cat. 25030-081)] was then added to the assay plate. After a 30 minute pre-incubation at 37° C. and 5% CO2, HEK-Blue-CD40L cells (InvivoGen, Cat. Code hkb-cd40) containing a NF-κB-driven secreted alkaline phosphatase reporter gene were seeded into the assay plate at a density of 20,000 cells per well. This plate was then incubated for 18 h at 37° C. and 5% CO2. Secreted alkaline phosphatase expression was measured using QUANTI-Blue (InvivoGen, Cat. Code rep-qb1) according to manufacturer's specifications and the assay plate was read on a PerkinElmer Envision at 620 nm.
Inhibition data for the test compound over a range of concentrations was plotted as percentage inhibition of the test compound (100%=maximum inhibition). IC50 values were determined after correcting for background [(sample read−mean of low control)/(mean of high control−mean of low control)] where by the low control is DMSO without stimulation and high control is DMSO with stimulation. The IC50 is defined as the concentration of test compound which produces 50% inhibition and was quantified using the 4 parameter logistic equation to fit the data.
Table 5 lists the IC50 values measured in the TNF induced HEK-Blue assay for Examples 1 to 40 of this invention.

TNFα, sequence (P01375 77-233): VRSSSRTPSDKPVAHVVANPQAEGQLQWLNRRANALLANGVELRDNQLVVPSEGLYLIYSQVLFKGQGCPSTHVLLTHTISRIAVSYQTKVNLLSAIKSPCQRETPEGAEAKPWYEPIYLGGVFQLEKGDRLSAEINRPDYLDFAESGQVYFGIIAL

Structure (SMILES) | IC50
Cc1ccc(C)c(C2CC(O)c3nc4ccc(-c5ccc(C(C)(C)O)cc5)nc4n32)c1 (centres unmarked) [Example 4 (DM), 8-(2,5-dimethylphenyl)-2-(4-(2-hydroxypropan-2-yl)phenyl)-7,8-dihydro-6H-pyrrolo[2′,1′:2,3]imidazo[4,5-b]pyridin-6-ol] | < 1 µM
CC(C)(O)c1ccc(-c2ccc3nc4n(c3n2)C(c2ccccc2C2CC2)CC4)cc1 (single isomer, unassigned) [Example 33 (e1), 2-(4-(8-(2-cyclopropylphenyl)-7,8-dihydro-6H-pyrrolo[2′,1′:2,3]imidazo[4,5-b]pyridin-2-yl)phenyl)propan-2-ol] | < 1 µM
CC(C)(O)c1ccc(-c2ccc3nc4n(c3n2)C(c2ccccc2OC(F)F)CC4O)cc1 (single isomer, unassigned) [Example 2 (e4), 8-(2-(difluoromethoxy)phenyl)-2-(4-(2-hydroxypropan-2-yl)phenyl)-7,8-dihydro-6H-pyrrolo[2′,1′:2,3]imidazo[4,5-b]pyridin-6-ol] | 1 to 10 µM
Cc1ccc(C)c([C@H]2CCc3nc4ccc(-c5ccc(N6CCN(C)CC6)cc5)nc4n32)c1 [Example 38, (R)-8-(2,5-dimethylphenyl)-2-(4-(4-methylpiperazin-1-yl)phenyl)-7,8-dihydro-6H-pyrrolo[2′,1′:2,3]imidazo[4,5-b]pyridine] | 1 to 10 µM
CC(C)(O)c1ccc(-c2ccc3nc4n(c3n2)C(c2ccccc2C2CC2)CC4F)cc1 (single isomer, unassigned) [Example 21 (e1), 2-(4-(8-(2-cyclopropylphenyl)-6-fluoro-7,8-dihydro-6H-pyrrolo[2′,1′:2,3]imidazo[4,5-b]pyridin-2-yl)phenyl)propan-2-ol] | < 1 µM
CC(C)(O)c1ccc(-c2ccc3nc4n(c3n2)C(c2ccccc2OC(F)F)CC4F)cc1 (single isomer, unassigned) [Example 15 (e2), 2-(4-(8-(2-(difluoromethoxy)phenyl)-6-fluoro-7,8-dihydro-6H-pyrrolo[2′,1′:2,3]imidazo[4,5-b]pyridin-2-yl)phenyl)propan-2-ol] | 10 to 25 µM
Cc1ccc(C)c(C2CC(O)c3nc4ccc(-c5cnc(C(C)(C)O)nc5)nc4n32)c1 (centres unmarked) [Example 5 (DM), 8-(2,5-dimethylphenyl)-2-(2-(2-hydroxypropan-2-yl)pyrimidin-5-yl)-7,8-dihydro-6H-pyrrolo[2′,1′:2,3]imidazo[4,5-b]pyridin-6-ol] | < 1 µM
CC(C)(O)c1ncc(-c2ccc3nc4n(c3n2)C(c2ccccc2OC(F)F)CC4F)cn1 (centres unmarked) [Example 16 (e3), 2-(5-(8-(2-(difluoromethoxy)phenyl)-6-fluoro-7,8-dihydro-6H-pyrrolo[2′,1′:2,3]imidazo[4,5-b]pyridin-2-yl)pyrimidin-2-yl)propan-2-ol] | 10 to 25 µM
CC(C)(O)c1ncc(-c2ccc3nc4n(c3n2)C(c2ccccc2OC(F)F)CC4)cn1 (racemic) [Example 27 (rac), 2-(5-(8-(2-(difluoromethoxy)phenyl)-7,8-dihydro-6H-pyrrolo[2′,1′:2,3]imidazo[4,5-b]pyridin-2-yl)pyrimidin-2-yl)propan-2-ol] | < 1 µM
CC(C)(O)c1ccc(-c2ccc3nc4n(c3n2)C(c2ccccc2OC(F)F)CC4O)cc1 (single isomer, unassigned) [Example 2 (e1), 8-(2-(difluoromethoxy)phenyl)-2-(4-(2-hydroxypropan-2-yl)phenyl)-7,8-dihydro-6H-pyrrolo[2′,1′:2,3]imidazo[4,5-b]pyridin-6-ol] | < 1 µM
CC(C)(O)c1ccc(-c2ccc3nc4n(c3n2)C(c2cc(F)ccc2C(F)(F)F)CC4O)cc1 (single isomer, unassigned) [Example 13 (e4), 8-(5-fluoro-2-(trifluoromethyl)phenyl)-2-(4-(2-hydroxypropan-2-yl)phenyl)-7,8-dihydro-6H-pyrrolo[2′,1′:2,3]imidazo[4,5-b]pyridin-6-ol] | 1 to 10 µM
CC(C)(O)c1ncc(-c2ccc3nc4n(c3n2)C(c2ccccc2OC(F)F)CC4F)cn1 (centres unmarked) [Example 16 (e2), 2-(5-(8-(2-(difluoromethoxy)phenyl)-6-fluoro-7,8-dihydro-6H-pyrrolo[2′,1′:2,3]imidazo[4,5-b]pyridin-2-yl)pyrimidin-2-yl)propan-2-ol] | < 1 µM
CC(C)(O)c1ccc(-c2ccc3nc4n(c3n2)C(c2ccccc2C2CC2)CC4F)cc1 (single isomer, unassigned) [Example 21 (e4), 2-(4-(8-(2-cyclopropylphenyl)-6-fluoro-7,8-dihydro-6H-pyrrolo[2′,1′:2,3]imidazo[4,5-b]pyridin-2-yl)phenyl)propan-2-ol] | < 1 µM
CC(C)(O)c1ccc(-c2ccc3nc4n(c3n2)C(c2ccccc2C2CC2)CC4)cc1 (single isomer, unassigned) [Example 33 (e2), 2-(4-(8-(2-cyclopropylphenyl)-7,8-dihydro-6H-pyrrolo[2′,1′:2,3]imidazo[4,5-b]pyridin-2-yl)phenyl)propan-2-ol] | 1 to 10 µM
COc1ccccc1C1CCc2nc3ccc(-c4cnc(N5CCN(CC(=O)O)CC5)nc4)nc3n21 (racemic) [Example 35 (rac), 2-(4-(5-(8-(2-methoxyphenyl)-7,8-dihydro-6H-pyrrolo[2′,1′:2,3]imidazo[4,5-b]pyridin-2-yl)pyrimidin-2-yl)piperazin-1-yl)acetic acid] | 1 to 10 µM
CC(C)(O)c1ccc(-c2ccc3nc4n(c3n2)C(c2ccccc2C(F)(F)F)CC4F)cc1 (single isomer, unassigned) [Example 14 (e2), 2-(4-(6-Fluoro-8-(2-(trifluoromethyl)phenyl)-7,8-dihydro-6H-pyrrolo[2′,1′:2,3]imidazo[4,5-b]pyridin-2-yl)phenyl)propan-2-ol] | < 1 µM
CC(C)(O)c1ncc(-c2ccc3nc4n(c3n2)C(c2ccccc2OC(F)F)CC4F)cn1 (centres unmarked) [Example 16 (e4), 2-(5-(8-(2-(difluoromethoxy)phenyl)-6-fluoro-7,8-dihydro-6H-pyrrolo[2′,1′:2,3]imidazo[4,5-b]pyridin-2-yl)pyrimidin-2-yl)propan-2-ol] | < 1 µM
COc1ccccc1C1CCc2nc3ccc(-c4ccc(C(C)(C)O)cc4)nc3n21 (centres unmarked) [Example 31 (e1), 2-(4-(8-(2-methoxyphenyl)-7,8-dihydro-6H-pyrrolo[2′,1′:2,3]imidazo[4,5-b]pyridin-2-yl)phenyl)propan-2-ol] | < 1 µM
Cc1ccc(C)c([C@H]2CCc3nc4ccc(-c5ccc(C(C)(C)O)cc5)nc4n32)c1 [Example 37, (R)-2-(4-(8-(2,5-dimethylphenyl)-7,8-dihydro-6H-pyrrolo[2′,1′:2,3]imidazo[4,5-b]pyridin-2-yl)phenyl)propan-2-ol] | < 1 µM
CC(C)(O)c1ccc(-c2ccc3nc4n(c3n2)C(c2ccccc2OC(F)(F)F)CC4F)cc1 (single isomer, unassigned) [Example 22 (e4), 2-(4-(6-fluoro-8-(2-(trifluoromethoxy)phenyl)-7,8-dihydro-6H-pyrrolo[2′,1′:2,3]imidazo[4,5-b]pyridin-2-yl)phenyl)propan-2-ol] | < 1 µM
CC(C)(O)c1ccc(-c2ccc3nc4n(c3n2)C(c2ccccc2OC(F)F)CC4O)cc1 (single isomer, unassigned) [Example 2 (e2), 8-(2-(difluoromethoxy)phenyl)-2-(4-(2-hydroxypropan-2-yl)phenyl)-7,8-dihydro-6H-pyrrolo[2′,1′:2,3]imidazo[4,5-b]pyridin-6-ol] | 1 to 10 µM
CC(C)(O)c1ccc(-c2ccc3nc4n(c3n2)C(c2ccccc2OC(F)(F)F)CC4F)cc1 (single isomer, unassigned) [Example 22 (e1), 2-(4-(6-fluoro-8-(2-(trifluoromethoxy)phenyl)-7,8-dihydro-6H-pyrrolo[2′,1′:2,3]imidazo[4,5-b]pyridin-2-yl)phenyl)propan-2-ol] | < 1 µM
FC(F)Oc1ccccc1C1CCc2nc3ccc(-c4cnc(N5CCOCC5)nc4)nc3n21 (racemic) [Example 28 (rac), 4-(5-(8-(2-(difluoromethoxy)phenyl)-7,8-dihydro-6H-pyrrolo[2′,1′:2,3]imidazo[4,5-b]pyridin-2-yl)pyrimidin-2-yl)morpholine] | < 1 µM
CC(C)(O)c1ccc(-c2ccc3nc4n(c3n2)C(c2ccccc2C2CC2)CC4O)cc1 (single isomer, unassigned) [Example 9 (e3), 8-(2-cyclopropylphenyl)-2-(4-(2-hydroxypropan-2-yl)phenyl)-7,8-dihydro-6H-pyrrolo[2′,1′:2,3]imidazo[4,5-b]pyridin-6-ol] | 1 to 10 µM
CC(C)(O)c1ccc(-c2ccc3nc4n(c3n2)C(c2cc(F)ccc2C(F)(F)F)CC4O)cc1 (single isomer, unassigned) [Example 13 (e2), 8-(5-fluoro-2-(trifluoromethyl)phenyl)-2-(4-(2-hydroxypropan-2-yl)phenyl)-7,8-dihydro-6H-pyrrolo[2′,1′:2,3]imidazo[4,5-b]pyridin-6-ol] | 1 to 10 µM
Cc1ccc(C)c(C2CC(O)c3nc4ccc(-c5cnc(N6CCOCC6)nc5)nc4n32)c1 (centres unmarked) [Example 6 (DM), 8-(2,5-dimethylphenyl)-2-(2-morpholinopyrimidin-5-yl)-7,8-dihydro-6H-pyrrolo[2′,1′:2,3]imidazo[4,5-b]pyridin-6-ol] | < 1 µM
